# Test results from patent US20140158116A1, “INHIBITING TRPA1 FOR THE TREATMENT OF ASTHMA” (Cubist Pharmaceuticals, Inc., priority 2012, published 2014).
# What was measured:
# hTRPV3 = biological target: T1, hTRPV3 (Homo sapiens, UniProt Q8NET8); experiment: Patch clamp selectivity, hTRPV3; assay type: cell-based
# T1 sequence (Q8NET8 1-790): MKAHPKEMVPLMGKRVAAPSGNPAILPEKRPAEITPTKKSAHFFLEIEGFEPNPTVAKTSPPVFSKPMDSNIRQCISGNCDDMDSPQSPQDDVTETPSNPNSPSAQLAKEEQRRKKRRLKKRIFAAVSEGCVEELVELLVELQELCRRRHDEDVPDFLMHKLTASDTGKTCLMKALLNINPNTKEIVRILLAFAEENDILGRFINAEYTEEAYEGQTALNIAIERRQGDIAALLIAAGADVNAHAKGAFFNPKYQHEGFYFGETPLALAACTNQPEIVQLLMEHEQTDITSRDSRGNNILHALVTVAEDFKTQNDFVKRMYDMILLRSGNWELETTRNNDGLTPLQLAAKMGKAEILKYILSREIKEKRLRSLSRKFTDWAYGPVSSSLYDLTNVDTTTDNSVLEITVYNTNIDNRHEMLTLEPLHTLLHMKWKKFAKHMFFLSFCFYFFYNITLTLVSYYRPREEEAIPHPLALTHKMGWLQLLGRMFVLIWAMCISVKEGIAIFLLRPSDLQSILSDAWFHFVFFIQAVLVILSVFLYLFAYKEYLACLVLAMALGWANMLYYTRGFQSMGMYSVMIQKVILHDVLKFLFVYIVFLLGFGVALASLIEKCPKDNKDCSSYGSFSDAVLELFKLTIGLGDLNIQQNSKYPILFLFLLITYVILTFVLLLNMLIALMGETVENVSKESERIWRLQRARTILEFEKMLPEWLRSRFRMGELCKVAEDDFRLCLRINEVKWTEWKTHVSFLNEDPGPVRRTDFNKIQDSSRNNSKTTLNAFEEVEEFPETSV
# Procedure: (§1) Data for TRPA1 inhibition and the selectivity of TRPA1 inhibition was obtained by this method for the compound of Formula (Ia) and included in Table 1 and Table 2. All currents were recorded in whole-cell configuration using EPC-9 and EPC-10 amplifiers and Patchmaster software (HEKA). […] The standard pipette solution consisted of 140 mM CsAsp, 10 mM EGTA, 10 mM HEPES, 2.27 mM MgCl2, 1.91 mM CaCl2, 4 mM MgATP, and 0.1-0.3 mM Na2GTP, with pH adjusted to 7.2 with CsOH. In addition, a solution containing 145 mM CsCl, 10 mM HEPES, 10 mM EGTA and 1 mM MgCl2 (pH 7.2 adjusted with CsOH) can be used. The standard bath solution contained 150 mM NaCl, 10 mM HEPES, 10 mM glucose, 4.5 mM KCl, 1 mM EGTA, 3 mM MgCl2, with pH adjusted to 7.4 with NaOH. In some instances, 2 mM CaCl2 was added in place of EGTA and the concentration of MgCl2 was reduced to 1 mM.
# (§2) Data were collected either by continuous recordings at −60 mV or by applying voltage ramps from a holding potential of 0 mV every 4 s. […] Inward and outward currents were analyzed from the ramps at −80 and 80 mV, respectively. […]
# (§3) Solutions were switched using a gravity-fed continuous focal perfusion system. […] Temperatures were confirmed using a thermistor (Warner Instruments, TA-29), with temperatures at the recorded cell estimated to be within +/−2° C. of those reported. […]
# hTRPM8 = hTRPM8 (Homo sapiens, UniProt Q7Z2W7); experiment: Patch clamp selectivity, hTRPM8; assay type: cell-based
# Sequence of hTRPM8 (Q7Z2W7 whole entry): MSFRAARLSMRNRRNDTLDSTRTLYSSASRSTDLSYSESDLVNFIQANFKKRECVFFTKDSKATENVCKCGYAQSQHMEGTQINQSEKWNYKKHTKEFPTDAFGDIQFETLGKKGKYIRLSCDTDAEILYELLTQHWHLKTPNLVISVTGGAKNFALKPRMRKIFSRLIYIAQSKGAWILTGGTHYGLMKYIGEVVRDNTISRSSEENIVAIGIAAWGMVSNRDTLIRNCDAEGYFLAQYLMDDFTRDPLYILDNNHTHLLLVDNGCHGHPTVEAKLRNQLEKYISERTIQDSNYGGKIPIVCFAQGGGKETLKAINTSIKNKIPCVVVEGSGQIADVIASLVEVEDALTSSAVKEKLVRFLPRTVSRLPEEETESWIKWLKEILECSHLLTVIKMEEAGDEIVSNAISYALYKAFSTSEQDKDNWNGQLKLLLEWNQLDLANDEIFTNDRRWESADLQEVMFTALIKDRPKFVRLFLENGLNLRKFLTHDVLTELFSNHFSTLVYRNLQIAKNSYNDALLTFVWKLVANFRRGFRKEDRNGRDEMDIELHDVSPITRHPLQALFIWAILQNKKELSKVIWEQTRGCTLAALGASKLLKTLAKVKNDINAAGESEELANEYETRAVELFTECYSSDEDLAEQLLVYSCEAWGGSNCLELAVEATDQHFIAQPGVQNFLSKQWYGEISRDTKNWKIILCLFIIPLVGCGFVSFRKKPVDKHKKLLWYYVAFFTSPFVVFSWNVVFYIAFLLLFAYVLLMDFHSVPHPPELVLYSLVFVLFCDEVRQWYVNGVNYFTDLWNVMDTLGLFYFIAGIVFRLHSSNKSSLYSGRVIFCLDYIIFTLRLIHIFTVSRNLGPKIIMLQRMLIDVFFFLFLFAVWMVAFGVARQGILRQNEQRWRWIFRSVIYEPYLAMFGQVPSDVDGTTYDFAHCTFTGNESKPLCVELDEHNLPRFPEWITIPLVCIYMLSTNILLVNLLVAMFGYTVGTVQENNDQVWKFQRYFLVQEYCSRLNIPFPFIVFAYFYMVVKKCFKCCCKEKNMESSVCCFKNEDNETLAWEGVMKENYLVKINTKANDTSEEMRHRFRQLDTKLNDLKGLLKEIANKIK
# Procedure: as §1, §2, §3
# hERG = hERG (Homo sapiens, UniProt Q12809); experiment: Patch clamp selectivity, hERG; assay type: cell-based
# Sequence of hERG (Q12809 whole entry): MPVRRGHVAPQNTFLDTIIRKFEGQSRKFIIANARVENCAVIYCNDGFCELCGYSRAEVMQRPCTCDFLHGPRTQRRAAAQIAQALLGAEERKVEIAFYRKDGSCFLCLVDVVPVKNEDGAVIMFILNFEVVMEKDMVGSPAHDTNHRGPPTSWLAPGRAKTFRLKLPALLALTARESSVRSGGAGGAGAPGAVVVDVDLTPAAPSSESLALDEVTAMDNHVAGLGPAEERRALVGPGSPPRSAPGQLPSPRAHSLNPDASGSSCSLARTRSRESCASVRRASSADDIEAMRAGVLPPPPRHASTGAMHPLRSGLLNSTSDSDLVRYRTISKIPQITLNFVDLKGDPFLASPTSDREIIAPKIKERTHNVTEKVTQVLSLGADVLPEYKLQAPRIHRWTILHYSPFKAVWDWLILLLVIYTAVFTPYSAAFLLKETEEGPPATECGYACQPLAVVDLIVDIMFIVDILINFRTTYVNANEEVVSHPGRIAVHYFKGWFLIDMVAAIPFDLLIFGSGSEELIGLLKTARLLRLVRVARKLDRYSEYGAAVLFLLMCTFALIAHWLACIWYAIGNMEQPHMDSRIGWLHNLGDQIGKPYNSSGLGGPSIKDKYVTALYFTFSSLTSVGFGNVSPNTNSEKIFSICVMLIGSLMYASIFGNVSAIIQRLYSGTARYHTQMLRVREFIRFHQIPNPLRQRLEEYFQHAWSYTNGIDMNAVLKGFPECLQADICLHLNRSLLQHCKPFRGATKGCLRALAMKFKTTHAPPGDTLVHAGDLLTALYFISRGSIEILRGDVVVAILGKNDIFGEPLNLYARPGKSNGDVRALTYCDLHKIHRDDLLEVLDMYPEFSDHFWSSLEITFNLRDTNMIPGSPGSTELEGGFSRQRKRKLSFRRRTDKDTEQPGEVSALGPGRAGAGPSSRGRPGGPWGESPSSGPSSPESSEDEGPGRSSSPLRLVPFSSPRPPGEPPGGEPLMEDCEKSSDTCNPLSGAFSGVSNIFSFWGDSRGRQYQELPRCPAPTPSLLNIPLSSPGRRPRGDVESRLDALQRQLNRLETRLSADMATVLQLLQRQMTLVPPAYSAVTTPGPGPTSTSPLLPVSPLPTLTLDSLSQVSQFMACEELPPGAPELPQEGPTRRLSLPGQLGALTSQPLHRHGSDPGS
# Procedure: as §1, §2, §3
# [1] = test system: CFA-induced cold allodynia; experiment: Complete Freund's Adjuvant (CFA) cold allodynia rodent pain model; assay type: in vivo; details: vehicle 19.8
# Procedure: The compound of Formula (Ia) is also active in rodent models of pain in vivo induced by cold allodynia following chronic Complete Freund's Adjuvant-induced inflammation, as described in Example 6. […] The compound of Formula (Ia), the comparator compound of Formula (II) and ketoprofen were tested by the CFA-induced pain test method reported in del Camino et al., J. Neurosci., 30(45):15165-15174, incorporated herein by reference in its entirety. Briefly, the hind paw was sensitized to cold temperature (allodynic), by administering 0.1 mL of Complete Freund's Adjuvant (CFA) to the left hind paw. 2-3 days later, the time taken for the animal to lift its CFA-injected paw was recorded compared to its un-injected normal right hind paw. […] To avoid tissue damage the maximum cut-off time was 5 minutes. Animals that were allodynic (average PWL to the first three pain behaviors <150 seconds for the CFA-injected hind paw: ˜≧50% difference between the normal and CFA-injected paw) were included in the study and subsequently randomized across treatment groups. The following day, the animals were dosed under blinded conditions. Following the 1-2 hour pre-treatment time, the post-dose PWL readings were again taken. The efficacy of the drug treatment was assessed by comparing the PWL in the drug treatment animals to those animals that received the vehicle.
# [2] = test system: serum biomarkers of hepatotoxicity (ALT, AST, ALP, GGT); experiment: Hepatotoxicity serum biomarker study in dogs, oral dose; assay type: in vivo, dog; details: dogs; 50 mg/kg PO
# Procedure: The compound of Formula (Ia) was orally dosed to […] at dose levels of 5, 15 or 50 mg/kg using 30% Sulfobutylether β-cyclodextrin as the vehicle for assessment of safety as measured via serum chemistry biomarkers of hepatotoxicity or bile duct injury FIG. 5A, showing measurements of alanine aminotranferease [ALT], aspartate aminotranferease [AST], alkaline phosphatase [ALP] and gamma-glutamyl transferase [GGT] in the dogs at each dose level (each bar represents a measurement from 1 dog in the study). […] For example, the ALT levels were elevated up to about 60-fold in male dogs and up to about 130-fold in female beagle dogs following a single PO dose of 50 mg/kg.
smiles,measurement,setting,value
C[C@H]1CCCN1c1ncc(-c2cccc(NC(=O)Cn3cnc4c3c(=O)n(C)c(=O)n4C)n2)cn1 [Formula (Ia)],Fold Selectivity Compared to TRPA1,hTRPV3,>300 fold
same,IC50,"hTRPV3; 30 micromolar 2-APB, Inward (−80 mV)",> 32 µM
same,Fold Selectivity Compared to TRPA1,hTRPM8,~200 fold
same,IC50,"hTRPM8; 100 micromolar Menthol, Inward (−80 mV)",19 µM
same,IC50,"hERG; Voltage, Tail current (−40 mV)",> 10 µM
same,selectivity ratio,"hERG; human, pH 7.4, read-out: Fold Selectivity Compared to TRPA1",> 100
same,Change in Paw Withdrawal Latency,"[1]; 1 mg/kg i.p., cold plate",38.4
same,Change in Paw Withdrawal Latency,[1]; 5 mg/kg i.p.,45.0
same,Change in Paw Withdrawal Latency,[1]; 10 mg/kg i.p.,117.6
same,Change in Paw Withdrawal Latency,[1]; 30 mg/kg i.p.,134.4
same,Change in Paw Withdrawal Latency,[1]; 50 mg/kg i.p.,177.8
same,effect on serum biomarkers of hepatotoxicity,[2],did not elevate serum biomarkers of hepatotoxicity or acute phase response
